Laboratory results from patent publication US7238716B2, “Alkanoic acid derivatives process for their production and use thereof” (Takeda Pharmaceuticals Company Limited, priority 2000, dated 2007).
Where two headings read alike, the source gives them in different places.

Assays:
KKAY mice = experiment: Hypoglycemic and hypolipidemic actions in mice (Test Example 1); type: in vivo; conditions: Mus musculus, po, 96 h, 0.005% in powdery diet, four days
Excerpt: Test compounds were mixed in a powdery diet (CE-2, Japan Clea) at the concentration of 0.01% (compounds of Examples 7, 26, 29, 32) or 0.005% (compounds of Examples 1, 11, 15, 18, 24, 36, 37, 41, 48, 50, 51, 52, 58, 62, 79, 83, 88, 90, 91, 92, 93, 97, 107, 110, 115, 119, 122, 125, 129 and 130), and freely given to KKAY mice (11 to 12 weeks old, 5 mice in a group), a model of type 2 diabetes mellitus, for four days. During this period, water was given freely. Blood was sampled from orbital venous plexus, and glucose and triglyceride levels in plasma separated from blood were determined enzymatically using L type Wako Glu2 (Wako Pure Chemical Industries, Ltd.) or L type Wako TG.H (Wako Pure Chemical Industries, Ltd.), respectively.
In the Table, “hypoglycemic action (%)” means a percent reduction (%) of the glucose level in the test compound administration group when that of the test compound non-administration group is taken as 100%. In addition, the “hypolipidemic action (%)” means a percent reduction (%) of the triglyceride level in the test compound administration group when that of the test compound non-administration group is taken as 100%.

PPARγ-RXRα heterodimer = biological target: T1, PPARγ-RXRα heterodimer (Homo sapiens, UniProt P37231); experiment: PPARγ-RXRα heterodimer ligand activity, luciferase reporter in PPARγ:RXRα:4ERPP/CHO-K1 cells (Test Example 3); type: cell-based; conditions: concentration for 50% of the maximum fold induction of luciferase activity; 48 hours, CHO-K1 cells
T1 construct: expressed in transfected cells; host or cells: CHO-K1
T1 sequence (P37231 1-477 isoform P37231-2): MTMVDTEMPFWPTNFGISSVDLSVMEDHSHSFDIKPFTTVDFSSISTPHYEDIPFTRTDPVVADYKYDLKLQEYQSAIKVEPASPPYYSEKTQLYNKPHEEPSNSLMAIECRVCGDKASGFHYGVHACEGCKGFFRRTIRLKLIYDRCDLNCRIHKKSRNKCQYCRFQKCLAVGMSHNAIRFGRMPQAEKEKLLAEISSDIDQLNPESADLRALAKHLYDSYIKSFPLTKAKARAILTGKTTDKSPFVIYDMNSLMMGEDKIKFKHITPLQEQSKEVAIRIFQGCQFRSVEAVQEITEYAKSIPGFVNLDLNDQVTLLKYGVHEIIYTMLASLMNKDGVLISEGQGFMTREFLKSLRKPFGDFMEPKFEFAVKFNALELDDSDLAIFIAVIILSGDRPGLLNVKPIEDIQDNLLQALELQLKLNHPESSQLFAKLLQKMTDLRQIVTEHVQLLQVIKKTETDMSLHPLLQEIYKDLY
T1 sequence (P19793 1-462 partner): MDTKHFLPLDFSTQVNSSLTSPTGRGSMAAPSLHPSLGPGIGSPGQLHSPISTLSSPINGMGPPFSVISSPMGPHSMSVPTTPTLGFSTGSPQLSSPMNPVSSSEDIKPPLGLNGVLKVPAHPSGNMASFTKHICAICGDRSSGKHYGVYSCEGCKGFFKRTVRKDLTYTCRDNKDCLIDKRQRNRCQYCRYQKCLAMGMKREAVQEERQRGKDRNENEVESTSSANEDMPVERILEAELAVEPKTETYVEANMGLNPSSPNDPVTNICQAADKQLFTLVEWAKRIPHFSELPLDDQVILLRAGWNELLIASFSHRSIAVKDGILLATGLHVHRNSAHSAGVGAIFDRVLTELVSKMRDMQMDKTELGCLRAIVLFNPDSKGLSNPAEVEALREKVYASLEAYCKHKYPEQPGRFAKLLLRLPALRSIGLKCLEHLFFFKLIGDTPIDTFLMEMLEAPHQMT
Protocol: A PPARγ:RXRα:4ERPP/CHO-K1 cells obtained in Reference Example 5 described later were cultured in HAM F12 medium (produced by NISSUI SEIYAKU) containing 10% Fetal bovine serum (produced by Life Technologies, Inc., USA) and then inoculated to a 96-well white plate (produced by Corning Costar Corporation, USA) at the density of 2×10^4 cells/well, and cultured in a CO2 gas incubator at 37° C. overnight.
After washing the 96 well white plate with PBS (Phosphate-buffered saline), 90 μl of HAM F12 medium containing 0.1% fatty acid-free bovine serum albumin (BSA) and 10 μl of test compound were added, which was cultured in a CO2 gas incubator at 37° C. for 48 hours. After removing the medium, 40 μl of PIKKAGENE 7.5 (produced by Wako Pure Chemical Industries, Ltd.) was added. After stirring, the luciferase activity was determined using Lumistar (produced by BMG Labtechnologies GmbH, Germany).
A fold induction was calculated based on the luciferase activity of each test compound by taking the luciferase activity in the test compound non administration group as 1. The values of the test compound, concentration and the fold induction were analyzed using PRISM 2.01 (produced by GraphPad Software Inc. USA) to calculate the EC50 values, the effective concentration of a test compound for 50% of the maximum fold induction.
After a CHO-K1 cell cultured in a 750 ml tissue culture flask (produced by Corning-Costar Corporation, USA) containing HAM F12 medium (produced by NISSUI SEIYAKU) supplemented with 10% Fetal Bovine Serum (produced by Life Technologies, Inc., USA) was scraped by treating with 0.5 g/L trypsin-0.2 g/L EDTA (ethylenediaminetetraacetic acid) (produced by Life Technologies, Inc., USA), the cell was washed with PBS (phosphate buffered saline) (produced by Life Technologies, Inc., USA), centrifuged (1000 rpm, 5 minutes), and then suspended in PBS. Subsequently, a DNA was introduced into the cell under the condition shown below using GENE PULSER (produced by Bio-Rad Laboratories, USA).
Namely, to a cuvette having a 0.4 cm gap, added were 8×10^6 cells and 10 μg of plasmid pVgRXR2-hPPARγ obtained in Reference Example 3 and 10 μg of reporter plasmid pGL3-4ERPP-TK neo obtained in Reference Example 4, which was subjected to electroporation at the voltage of 0.25 kV under the capacitance of 960 μF. Subsequently, the cell was transferred into a HAM F12 medium containing 10% Fetal Bovine. Serum and cultured for 24 hours. Then the cell was scraped again and centrifuged, and then suspended in HAM F12 medium containing 10% Fetal Bovine Serum supplemented with 500 μg/ml of GENETICIN (produced by Life Technologies, Inc., USA) and 250 μg/ml of ZEOCIN (produced by Invitrogen, USA). The suspension was diluted to the density of 10^4 cells/ml, and inoculated to a 96-well plate (produced by Corning Costar Corporation, USA), which was cultured in a CO2 gas incubator at 37° C., whereby obtaining a GENETICIN- and ZEOCIN-resistant transformant.
Subsequently, after the transformant cell line thus obtained was cultured in a 24-well plate (produced by Corning Costar Corporation, USA), selected was a cell line, PPARγ:RXRα:4ERPP/CHO-K1 cell, in which the luciferase was expressed and induced by addition of 10 μM pioglitazone hydrochloride.

[1] = percent reduction of plasma glucose level vs non-administration group, read-out: hypoglycemic action (%)
[2] = percent reduction of plasma triglyceride level vs non-administration group, read-out: hypolipidemic action (%)

| SMILES | inhibition in vivo at 0.005 % (KKAY mice; [1]) [%] | inhibition in vivo at 0.005 % (KKAY mice; [2]) [%] | EC50 (PPARγ-RXRα heterodimer) [nM] | melting point [°C] |
| --- | --- | --- | --- | --- |
| Cc1oc(-c2ccccc2)nc1CCOc1ccc(COc2ccccc2CC(=O)O)cn1 [Example 119, 2-[2-[[6-[2-(5-methyl-2-phenyl-4-oxazolyl)ethoxy]-3-pyridyl]methoxy]phenyl]acetic acid] | 40 | 33 | 220 | 159 to 160 |
| CCCc1ccc(OCc2ccc(OCc3nc(-c4ccccc4)oc3C)cc2)c(CC(=O)O)c1 [Example 83, 2-[2-[4-[(5-methyl-2-phenyl-4-oxazolyl)methoxy]benzyloxy]-5-propylphenyl]acetic acid] | 48 | 43 | 110 | 116 to 117 |
| Cc1oc(-c2ccccc2)nc1CCc1nc(COc2ccccc2CC(=O)O)co1 [Example 99, 2-[2-[[2-[2-(5-methyl-2-phenyl-4-oxazolyl)ethyl]-4-oxazolyl]methoxy]phenyl]acetic acid] |  |  | 160 | 109 to 110 |
| Cc1oc(-c2ccco2)nc1COc1cc(COc2cccc(CC(=O)O)c2)ccn1 [Example 90] | 30 | 40 | 52 | 136 to 137 |
| Cc1oc(-c2ccco2)nc1COc1ccc(COc2ccccc2CC(=O)O)cn1 [Example 124] |  |  | 42 | 119 to 120 |
| Cc1oc(-c2ccccc2)nc1COc1cc(COc2cccc(CC(=O)O)c2)on1 [Example 81, 2-[3-[3-(5-methyl-2-phenyl-4-oxazolylmethoxy)-5-isoxazolylmethloxy]phenyl]acetic acid] |  |  | 62 | 128 to 129 |
| Cc1sc(-c2ccccc2)nc1COc1ccc(COc2ccccc2CC(=O)O)cn1 [Example 122, 2-[2-[[6-[(5-methyl-2-phenyl-4-thiazolyl)methoxy]-3-pyridyl]methoxy]phenyl]acetic acid] | 52 | 67 | 17 | 173 to 174 |
| Cc1nn(-c2ccccn2)cc1COc1ccc(COc2ncccc2CC(=O)O)cc1 [Example 126, 2-[2-[4-[[3-methyl-1-(2-pyridyl)-1H-pyrazol-4-yl]methoxy]benzyloxy]-3-pyridyl]acetic acid] |  |  | 1700 | 150 to 151 |
| Cc1sc(-c2ccccc2)nc1COc1cc(COc2ncccc2CC(=O)O)on1 [Example 115, 2-[2-[[3-[(5-methyl-2-phenyl-4-thiazolyl)methoxy]-5-isoxazolyl]methoxy]-3-pyridyl]acetic acid] | 52 | 87 | 70 | 109 to 110 |
| Cc1oc(-c2ccccc2)nc1CCc1nc(COc2ccccc2CC(=O)O)cs1 [Example 103, 2-[2-[[2-[2-(5-methyl-2-phenyl-4-oxazolyl)ethyl]-4-thiazolyl]methoxy]phenyl]acetic acid] |  |  | 240 | 152 to 153 |
| Cc1oc(-c2ccccc2)nc1COc1cncc(COc2cccc(CC(=O)O)c2)c1 [Example 78, 2-[3-[5-[(5-methyl-2-phenyl-4-oxazolyl)methoxy]-3-pyridylmethoxy]phenyl]acetic acid] |  |  | 190 | 143 to 144 |
| CCCc1oc(-c2ccccc2)nc1COc1ccc(COc2ccccc2CC(=O)O)cc1 [Example 85, 2-[2-[4-[(2-phenyl-5-propyl-4-oxazolyl)methoxy]benzyloxy]phenyl]acetic acid] |  |  | 260 | 129 to 130 |
| CCOc1cc(OCc2ccc(OCc3nc(-c4ccccc4)oc3C)cc2)ccc1CCC(=O)O [Example 66, 3-[2-ethoxy-4-[4-[(5-methyl-2-phenyl-4-oxazolyl)methoxy]benzyloxy]phenyl]propionic acid] |  |  | 940 | 135 to 136 |
| CCOc1cc(OCc2cccc(OCc3nc(-c4ccccc4)oc3C)c2)ccc1CCC(=O)O [Example 71, 3-[2-ethoxy-4-[3-[(5-methyl-2-phenyl-4-oxazolyl)methoxy]benzyloxy]phenyl]propionic acid] |  |  | 330 | 122 to 123 |
| Cc1oc(-c2ccccc2)nc1CN(C(=O)OC(C)(C)C)c1ccc(COc2ccccc2CC(=O)O)cc1 [Example 60, 2-[2-[4-[(t-butoxycarbonyl)[(5-methyl-2-phenyl-4-oxazolyl)methyl]amino]benzyloxy]phenyl]acetic acid] |  |  | 6.1 |  |
| Cc1oc(-c2ccccc2)nc1CCc1nc(COc2cccc(CC(=O)O)c2)co1 [Example 101, 2-[3-[[2-[2-(5-methyl-2-phenyl-4-oxazolyl)ethyl]-4-oxazolyl]methoxy]phenyl]acetic acid] |  |  | 43 | 127 to 128 |
| COc1ccc(COc2cccc(CC(=O)O)c2)cc1OCc1nc(-c2ccccc2)oc1C [Example 132, 3-[4-methoxy-3-[(2-phenyl-5-methyl-4-oxazolyl)methoxy]benzyloxy]phenylacetic acid] |  |  | 110 | 114 to 115 |
